Laboratory results as given in PMC6274353, “The Blood-Brain Barrier Permeability of Lignans and Malabaricones from the Seeds of Myristica fragrans in the MDCK-pHaMDR Cell Monolayer Model” (Molecules, 2016).

Columns and labels:
[1] = bidirectional transport across the MDCK-pHaMDR cell monolayer (in vitro BBB model); settings: dog, MDCK-MDR1, pH 7.35
Description: (§1) The MDCK-pHaMDR cells were seeded at a density of about 8 × 10^4 cells/mL on the 12-well Transwell® plates. After an eight-day culture, the cells reached confluence and differentiation for the transport study.
(§2) On the 8th day, the monolayers were washed twice and shaken at 55 rpm for 30 min with HBSS at 37 °C. Then, the TEER was measured with an epithelial volt-ohm meter (EVOM; World Precision Instrument) to examine the monolayer's integrity. Only those with the TEER values above 1000 Ω·cm^2 were qualified for the transport.
(§3) The bidirectional transport assay was initiated by adding a test compound to either the apical (0.5 mL for apical to basolateral transport, A→B) or the basolateral (1.5 mL for basolateral to apical transport, B→A) side. After shaking at 55 rpm and 37 °C for a certain time, samples (A→B: 400 µL from the apical side and 1300 µL from the basolateral side; B→A: 450 µL from the apical side and 450 µL from the basolateral side) were collected, immediately frozen, lyophilized and preserved below –20 °C before analysis.
(§4) Papp of each compound was calculated based on the following equation: (1) Papp = (ΔQ/Δt)/(AC0) (cm/s) where ΔQ/Δt is the appearance rate of the test compound at the receiver side (µmol/s), C0 is the initial concentration of the test compound at the donor side (µM), and A is the membrane surface area (cm^2). All of the experiments were conducted in triplicate.

[2] = tested on: MDCK-pHaMDR cell monolayer; test: as above; settings: classed by Papp against caffeine and atenolol
Description: as §1, §2, §3, §4

P-glycoprotein (P-gp) = test: in vitro; settings: dog

SMILES	Papp A→B at 90 min, 100 µM [1]	Papp B→A at 90 min, 100 µM [1]	Papp at 90 min, 100 µM [1]	permeability (in words) [2]	Papp B→A (P-glycoprotein (P-gp); MDCK-MDR1)	Papp B→A (P-glycoprotein (P-gp); MDCK-MDR1, with verapamil 100 µM)	Papp [1]
COc1cc2c(cc1O)[C@H](c1ccc3c(c1)OCO3)[C@@H](C)[C@H](C)C2 [Compound 12, otobaphenol]	< 0.073 ×10⁻⁶ cm/s	< 0.07 ×10⁻⁶ cm/s	≤ 0.01 ×10⁻⁶ cm/s	–	–	–	–
O=C(CCCCCCCCc1ccccc1)c1c(O)cccc1O [Compound 13, malabaricone A]	< 0.038 ×10⁻⁶ cm/s	< 0.037 ×10⁻⁶ cm/s	≤ 0.01 ×10⁻⁶ cm/s	–	–	–	–
C/C=C/c1cc(OC)c2c(c1)[C@@H](C)[C@H](c1cc(OC)c3c(c1)OCO3)O2 [Compound 4, 3′-methoxylicarin B]	< 0.057 ×10⁻⁶ cm/s	< 0.055 ×10⁻⁶ cm/s	≤ 0.01 ×10⁻⁶ cm/s	very poor permeability	–	–	–
C/C=C/c1cc(OC)c2c(c1)[C@@H](C)[C@H](c1ccc3c(c1)OCO3)O2 [Compound 3, licarin B]	< 0.062 ×10⁻⁶ cm/s	< 0.06 ×10⁻⁶ cm/s	≤ 0.01 ×10⁻⁶ cm/s	very poor permeability	–	–	–
Cn1c(=O)c2c(ncn2C)n(C)c1=O [caffeine, reference compound]	–	–	–	–	–	–	24.4 ± 1.1 ×10⁻⁶ cm/s

Continued, in another order:

Papp A→B at 90 min, 100 µM [1]	Papp B→A at 90 min, 100 µM [1]	Papp at 90 min, 100 µM [1]	permeability (in words) [2]	Papp B→A (P-glycoprotein (P-gp); MDCK-MDR1)	Papp B→A (P-glycoprotein (P-gp); MDCK-MDR1, with verapamil 100 µM)	SMILES	Papp [1]
< 0.075 ×10⁻⁶ cm/s	< 0.073 ×10⁻⁶ cm/s	≤ 0.01 ×10⁻⁶ cm/s	–	–	–	COc1cc([C@H]2c3cc(O)c(OC)cc3C[C@@H](C)[C@@H]2C)ccc1O [Compound 11, guaiacin]	–
10.4 ± 1.49 ×10⁻⁶ cm/s	15 ± 1.27 ×10⁻⁶ cm/s	–	–	–	–	COc1cc([C@H]2O[C@@H](c3ccc(O)c(OC)c3)[C@H](C)[C@@H]2C)ccc1O [Compound 9, nectandrin B]	–
2.43 ± 0.32 ×10⁻⁶ cm/s	1.82 ± 0.18 ×10⁻⁶ cm/s	~1 ×10⁻⁶ cm/s	–	–	–	C/C=C/c1cc(OC)c2c(c1)[C@@H](C)[C@H](c1ccc(O)c(OC)c1)O2 (racemic) [Compound 1, Dehydrodiisoeugenol]	–
< 0.145 ×10⁻⁶ cm/s	< 0.14 ×10⁻⁶ cm/s	~0.1 ×10⁻⁶ cm/s	–	–	–	COc1cc(CC(C)C(C)Cc2ccc(O)c(OC)c2)ccc1O (stereo not drawn) [Compound 10, dihydroguaiaretic acid]	–
10.9 ± 0.32 ×10⁻⁶ cm/s	20.4 ± 0.97 ×10⁻⁶ cm/s	–	–	–	–	COc1cc([C@H]2O[C@@H](c3ccc(O)c(OC)c3)[C@@H](C)[C@@H]2C)ccc1O [Compound 8, verrucosin]	–
–	–	–	–	3.31 ± 0.12 ×10⁻⁶ cm/s	1.52 ± 0.08 ×10⁻⁶ cm/s	COC(=O)c1ccccc1-c1c2ccc(=N)cc-2oc2cc(N)ccc12 [rhodamin 123, rhodamine 123]	–
0.64 ± 0.07 ×10⁻⁶ cm/s	0.63 ± 0.04 ×10⁻⁶ cm/s	~0.1 ×10⁻⁶ cm/s	–	–	–	O=C(CCCCCCCCc1ccc(O)c(O)c1)c1c(O)cccc1O [Compound 15, malabaricone C]	–
